For data set [1], the system named is immunized anti-β1-positive cardiomyopathic rats. In words: Treatment of immune-cardiomyopathy in the human analogue rat model (therapy study). The class given is in vivo, Lewis CrlBR rats. The conditions noted are these: therapy every 4 weeks after 8 months of immunization; FIGS. 8a and 8b. An excerpt: Lewis CrlBR rats were used as animals. […] Therapy was started after 8 months of regular (1× monthly) immunization. Monthly immunization was continued under therapy.
FIG. 8b is a diagram comparing the titer course of specific anti-ECII antibodies dependent on the different peptide variants used in the therapy arm of the study, whereby 25AA means the cyclic peptide Ic, 18AA means the shorter 18 amino-acid variant, and 16AA the shorter 16 amino-acid variant of the peptide. “Beta1 untreated” means immunized anti-1-positive cardiomyopathic not treated animals, “Beta1/pept. […] ECII-25AA, ECII-18AA, ECII-16AA” means immunized anti-1-positive cardiomyopathic animals treated with the 25AA-, 18AA-, or 16AA-peptide, respectively.
[…]. In general, the number of amino acids and thus the length of the primary structure appears to be crucial for the biological effects of the peptides of the present invention. A peptide-length equal to or above 26 amino acids (primary structure) is thought to be capable of stimulating directly (that is, without the use of carrier proteins) immunocompetent T-cells and thus provoke a paradoxal increase in anti-β1-receptor antibody production through T-cell mediated B-cell stimulation. Therefore, in the frame of the therapy study a limited number of pilot animals was treated with shorter peptide-variants of the 25 amino-acid peptide Ic, i.e. variants comprising either 18 or 16 amino-acids of the cyclic peptide. The used constructs were: ECII-18AA, cyclo([…] (SEQ ID NO:1); and ECII-16AA, cyclo([…] (SEQ ID NO.2). Upon administration of shorter peptide-variants of the present invention peptide every 4 weeks, a rapid decrease in the specific anti-beta 1-ECII antibody titer was equally observed within the first 6 months of therapy.

Data set [2] has as its system rats immunized against the second β1-receptor loop (β1-ECII). In words: Prevention of immune-cardiomyopathy in the human analogue rat model.
Data set [3] concerns immunized anti-β1-positive cardiomyopathic rats. In words: Treatment of immune-cardiomyopathy in the human analogue rat model (therapy study). The conditions noted are these: for regression of LV dilatation: therapy study; for regression of LV dilatation / biological efficiency (reversal of the cardiomyopathic phenotype): echocardiography; for progression of the disease monitored by echocardiography: within the 12 months of treatment, compared with untreated antibody positive animals, FIGS. 10 and 11; for biological efficiency (reversal of the cardiomyopathic phenotype): FIGS. 10d and 11d. The class given is in vivo, Lewis CrlBR rats.

For a further data set, the system named is CD4+ T-cells. In words: T-cell recall assay with CD4+ T-cells from immunized animals (FIG. 19). The conditions noted are these: T-cells from prophylactically or therapeutically treated immunized animals; peptide 10 μg/ml, FP 1.0 or 0.1 μg/mL. The class given is cell-based, rat. The procedure:
“Cont.” means the respective not immunized control animals. The assays were carried out according to Schmidt J. et al. (2003) J Neuroimmunol. 140, 143-152. In brief, to purify CD4+ T-cells from the splenic cell preparations, B-cells and CD8+ T-cells were depleted by commercially available magnetic beads (MACS®), yielding a purity of CD4+ cells >85%. 1×10^5 CD4+ of the purified T-cells were then co-incubated in 96-well plates with 1×10^6 irradiated thymic antigen presenting cells (prepared from a younger rat). Reagents added in the different assays (conditions) were: 10 μg/ml glutathion-S-transferase (GST), 2 μg/ml Concanavalin A (ConA, positive control), 10 μg/ml 25AA-ECII peptide (Pept.25AA), and GST/beta1-ECII fusion protein (FP) at a concentration of 1.0 and 0.1 μg/ml, respectively. The measured T-cell reactivities were normalized to the respective T-cell reactivities obtained with 10 μg/ml purified protein derivative (PPD) carried out in parallel under each condition. After 48 hours of incubation, 50% of the supernatants were removed and replaced by fresh medium. The cells were then pulsed with 1.25 μCi/well [^3H]-thymidine and further incubated for 16 hours before the cells were harvested, and the DNA-incorporated radioactivity was measured using a beta-plate.

Data set [4] deals with rats immunized against the second β1-receptor loop (β1-ECII). The conditions noted are these: rat, in vivo.

Entries after “also recorded” stand apart in the source; their conditions may differ. Read-outs that look alike come from different tables or passages of the source.

`CC(C)NCC(O)COc1ccc(COCCOC(C)C)cc1` (stereo not drawn) [bisoprolol, reference compound]: the “circulating specific anti-β1-ECII antibody titer” value in data set [1] was “had even higher beta1-antibody titers”. In data set [2] (FIG. 12 and FIG. 13, examples 3 and 4 (prevention and therapy study)), the “impact on heart rate and blood pressure” value is “significantly reduced both heart rate and blood pressure”. For the same molecule, the heart rate entry in data set [2] (prophylactic treatment, FIGS. 5 and 12) was “significant reduction in heart rate”. The “cardiac β1-receptor density (down-/upregulation)” value in data set [3] (FIGS. 17 and 18 (prevention and therapy study)) is given as “β1-receptor upregulation”. Also, in data set [3], the “regression of LV dilatation” value is recorded as “could not be reversed completely” and the “progression of the disease monitored by echocardiography” value (“progression of the disease monitored” below) is “no progression”.
In the case of “cyclo(Ala-Arg-Ala-Glu-Ser-Asp-Glu-Ala-Arg-Arg-Cys-Tyr-Asn-Asp-Pro-Lys-Cys-Cys-Asp-Phe-Val-Thr-Asn-Arg-Gln) (cyclo(ARAESDEARRCYNDPKCCDFVTNRQ); not fully specified; printed as cyclo(Ala-Arg-Ala-Glu-Ser-Asp-Glu-Ala-Arg-Arg-Cys-Tyr-Asn-Asp-Pro-Lys-Cys-Cys-Asp-Phe-Val-Thr-Asn-Arg-Gln); cysteine pairing not given here) [peptide Ic]”, the “stimulation and proliferation of CD4+ T-cells” value in the data set with CD4+ T-cells was “neither treatment group resulted in a significant stimulation”. The “circulating specific anti-β1-ECII antibody titer” value in data set [1] was “surprisingly rapid decrease; also recorded: reduced by about a same extent”. The heart rate result in data set [4] is “did neither decrease heart rate”. Also, the “specific anti-β1-ECII antibody-titer” value in data set [2] (1 mg/kg s.c. or i.v. every 4 weeks, prophylactic, FIG. 4) is “prevented a further increase of the specific anti-β1-ECII antibody-titer with the titer even continuously declining”. Moreover, the “immune response upon antigen boost every 4 weeks” value in data set [2] (from the fifth month on, FIG. 4) was “no more immune response”. Moreover, in data set [3], the “biological efficiency (reversal of the cardiomyopathic phenotype)” value (“biological efficiency” below) is “reversal of the cardiomyopathic phenotype”, the “regression of LV dilatation” value is “significant regression of LV dilatation” and the “progression of the disease monitored” value is “no progression”.
For “cyclo(Ala-Arg-Arg-Cys-Tyr-Asn-Asp-Pro-Lys-Cys-Cys-Asp-Phe-Val-Tyr-Gln) (cyclo(ARRCYNDPKCCDFVYQ); not fully specified; printed as cyclo(Ala-Arg-Arg-Cys-Tyr-Asn-Asp-Pro-Lys-Cys-Cys-Asp-Phe-Val-Tyr-Gln); cysteine pairing not given here) [ECII-16AA]”, in data set [1], the “circulating specific anti-β1-ECII antibody titer” value is “remain stable instead of decreasing”. For the same molecule, in data set [3], the “biological efficiency” value was “ambiguous results in 2 treated rats with one animal having complete reversal of the cardiomyopathic phenotype, the other animal progressive LV dilatation and dysfunction”; the “regression of LV dilatation” value is on record as “obviously being less effective”; the “progression of the disease monitored” value is recorded as “at least the progression of the disease was stopped or stabilized”.
As for “cyclo(Ala-Asp-Glu-Ala-Arg-Arg-Cys-Tyr-Asn-Asp-Pro-Lys-Cys-Cys-Asp-Phe-Val-Gln) (cyclo(ADEARRCYNDPKCCDFVQ); not fully specified; printed as cyclo(Ala-Asp-Glu-Ala-Arg-Arg-Cys-Tyr-Asn-Asp-Pro-Lys-Cys-Cys-Asp-Phe-Val-Gln); cysteine pairing not given here) [ECII-18AA]”, the “circulating specific anti-β1-ECII antibody titer” value in data set [1] is “reduced by about a same extent”. In data set [3], the “biological efficiency” value is “reversal of the cardiomyopathic phenotype” and the “regression of LV dilatation” value is on record as “significant regression of LV dilatation”.

The record behind these values is patent US8716030B2, “Means for the inhibition of anti-β1-adrenergic receptor antibodies” (Julius-Maximillians-Universitat Wurzburg, A Germany …, priority 2005, dated 2014).
